Data from patent publication US8450093B1, “Adaptive engineering of clostridium for increased butanol production” (The Ohio State University, priority 2010, dated 2013).

Legend:
ATCC 824 = settings: 12 g/L butanol
Description: (§1) Butanol tolerances of different strains are investigated and compared according to the maximal specific growth rates achieved under the challenge of different concentrations of butanol. Seed cultures are prepared the same way as those used for fermentor fermentation. Then, seeds of different strains are inoculated into 10 ml of CGM medium in serum tubes supplemented with different concentrations of butanol. The tubes are incubated at 37° C. and optical densities (OD600) are measured every 2 h. Growth curves may be drawn according to the OD600 data. Maximal specific growth rates (h^−1) of different strains under different butanol concentrations may be calculated based on the growth curves.

JB200 = settings: CGM medium, 37° C., OD600
Description: as §1

[1] = tested on: C. acetobutylicum ATCC 55025 (parental strain)
Description: as §1

BA 101 = settings: 12 g/L butanol
Description: as §1

NCIMB 8052 = settings: 12 g/L butanol
Description: as §1

What does the source list for butanol?
growth in the presence of butanol (ATCC 824): none of them could grow; butanol concentration at which cells still grew (JB200): 16 g/L; butanol concentration above which cell growth stopped ([1]; CGM medium, 37° C., OD600): higher than 12 g/L; butanol concentration at which growth usually stops (cells lysed) ([1]; general statement, parental strain): 10-12 g/L; growth in the presence of butanol (BA 101): none of them could grow; growth in the presence of butanol (NCIMB 8052): none of them could grow
